Measured values published in patent US12281225B2, “Process for preparing stable polymers containing vinylimidazole” (BASF SE, priority 2018, dated 2025).

Legend:
[1] = Analysis of active substance: preservative concentration before and after storage in VI-containing polymer solution; format: physicochemical; conditions: for active-substance concentration, 0 d, RT: before storage; for active-substance concentration, 14 d, 40° C.: storage 14 d at 40° C.; for active-substance concentration, 28 d, 40° C.: storage 28 d at 40° C.; for active-substance concentration, 60 d 40° C.: storage 60 d at 40° C.
Outline: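 Preservatives (MIT, BIT, CMIT, OIT, DCOIT, iodopropynyl butyl carbamate) in aqueous vinylpyrrolidone–vinylimidazole copolymer solution quantified after dilution by isocratic RP18 chromatography with UV detection, using an acid-methanol eluent.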

[2] = Iodine color number according to DIN 6162:2014-09; format: physicochemical
[3] = tested on: Bacteria: Escherichia coli, Staphylococcus aureus, Pseudomonas aeruginosa, Pseudomonas putida, Burkholderia cepacia, Alcaligenes faecalis; assay: Preservation test with periodic inoculation, bacteria assessment; format: cell-based; conditions: for Start sample measurement, bact. assess., 4th inoculation: freshly formulated; for 60 d 40° C., bact. assess., 4th inoculation: sample stored 60 d at 40° C.
Outline: (§1)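 Polymer samples (25 g) containing preservative were inoculated weekly, four times, with 10^9/ml bacterial or yeast mixtures (0.5 ml). Weekly streaks on agar were scored semiquantitatively (−− to ++) after 3 days at 25 °C, on fresh samples and on samples stored 60 days at 40 °C.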

[4] = tested on: Yeast: Candida albicans, Candida valida, Rhodotorula rura, Saccharomyces cerevisiae; assay: Preservation test with periodic inoculation, yeast assessment; format: cell-based; conditions: for 60 d 40° C., yeast assess., 4th inoculation: sample stored 60 d at 40° C.; for Start sample measurement, yeast assess., 4th inoculation: freshly formulated
Outline: as §1

[5] = Polymer P5 (HP56) with stabilizer

O=c1[nH]sc2ccccc12 [BIT, 1,2-benzisothiazolin-3-one]
active-substance concentration, 0 d, RT ([1]; in Polymer P1): 150 ppm
active-substance concentration, 14 d, 40° C. ([1]; in Polymer P1): 101 ppm
active-substance concentration, 28 d, 40° C. ([1]; in Polymer P1): 85 ppm
active-substance concentration, 60 d 40° C. ([1]; in Polymer P1): 69 ppm
active-substance concentration, 0 d, RT ([1]; in Polymer P2): 150 ppm
active-substance concentration, 14 d, 40° C. ([1]; in Polymer P2): 112 ppm
active-substance concentration, 28 d, 40° C. ([1]; in Polymer P2): 93 ppm
active-substance concentration, 60 d 40° C. ([1]; in Polymer P2): 80 ppm
active-substance concentration, 0 d, RT ([1]; in Polymer P3): 150 ppm
active-substance concentration, 14 d, 40° C. ([1]; in Polymer P3): 119 ppm
active-substance concentration, 28 d, 40° C. ([1]; in Polymer P3): 99 ppm
active-substance concentration, 60 d 40° C. ([1]; in Polymer P3): 80 ppm
active-substance concentration, 0 d, RT ([1]; in Polymer P4): 150 ppm
active-substance concentration, 14 d, 40° C. ([1]; in Polymer P4): 117 ppm
active-substance concentration, 28 d, 40° C. ([1]; in Polymer P4): 93 ppm
active-substance concentration, 60 d 40° C. ([1]; in Polymer P4): 82 ppm
active-substance concentration, 0 d, RT ([1]; in Polymer P5 (HP56)): 150 ppm
active-substance concentration, 14 d, 40° C. ([1]; in Polymer P5 (HP56)): 101 ppm
active-substance concentration, 28 d, 40° C. ([1]; in Polymer P5 (HP56)): 85 ppm
active-substance concentration, 60 d 40° C. ([1]; in Polymer P5 (HP56)): 69 ppm
active-substance concentration, 0 d, RT ([1]; in Polymer P6): 150 ppm
active-substance concentration, 14 d, 40° C. ([1]; in Polymer P6): 99 ppm
active-substance concentration, 28 d, 40° C. ([1]; in Polymer P6): 83 ppm
active-substance concentration, 60 d 40° C. ([1]; in Polymer P6): 66 ppm
active-substance concentration, 0 d, RT ([1]; in Polymer P7): 150 ppm
active-substance concentration, 14 d, 40° C. ([1]; in Polymer P7): 105 ppm
active-substance concentration, 28 d, 40° C. ([1]; in Polymer P7): 88 ppm
active-substance concentration, 60 d 40° C. ([1]; in Polymer P7): 72 ppm
active-substance concentration, 0 d, RT ([1]; in Polymer P8): 150 ppm
active-substance concentration, 14 d, 40° C. ([1]; in Polymer P8): 101 ppm
active-substance concentration, 28 d, 40° C. ([1]; in Polymer P8): 85 ppm
active-substance concentration, 60 d 40° C. ([1]; in Polymer P8): 69 ppm
active-substance concentration, 0 d, RT ([1]; in Polymer P9): 150 ppm
active-substance concentration, 14 d, 40° C. ([1]; in Polymer P9): 97 ppm
active-substance concentration, 28 d, 40° C. ([1]; in Polymer P9): 78 ppm
active-substance concentration, 60 d 40° C. ([1]; in Polymer P9): 60 ppm
Iodine color number, 60 d 40° C. ([2]; Polymer P1 with stabilizer): 6.0
Iodine color number, start ([2]; Polymer P1 with stabilizer): 2.6
Iodine color number, 60 d 40° C. ([2]; Polymer P2 with stabilizer): 7.1
Iodine color number, start ([2]; Polymer P2 with stabilizer): 2.9
Iodine color number, 60 d 40° C. ([2]; Polymer P3 with stabilizer): 9.3
Iodine color number, start ([2]; Polymer P3 with stabilizer): 3.4
Iodine color number, 60 d 40° C. ([2]; Polymer P4 with stabilizer): 9.2
Iodine color number, start ([2]; Polymer P4 with stabilizer): 3.4
Iodine color number, 60 d 40° C. [2, 5]: 10.4
Iodine color number, start [2, 5]: 3.6
Iodine color number, 60 d 40° C. ([2]; Polymer P6 with stabilizer): 10.0
Iodine color number, start ([2]; Polymer P6 with stabilizer): 3.6
Iodine color number, 60 d 40° C. ([2]; Polymer P7 with stabilizer): 10.0
Iodine color number, start ([2]; Polymer P7 with stabilizer): 3.6
Iodine color number, 60 d 40° C. ([2]; Polymer P8 with stabilizer): 10.4
Iodine color number, start ([2]; Polymer P8 with stabilizer): 3.4
Iodine color number, 60 d 40° C. ([2]; Polymer P9 with stabilizer): 12.8
Iodine color number, start ([2]; Polymer P9 with stabilizer): 4.0
Start sample measurement, bact. assess., 4th inoculation ([3]; Polymer P1): − (slight growth, max. 100 colonies)
60 d 40° C., bact. assess., 4th inoculation ([3]; Polymer P1): +
Start sample measurement, bact. assess., 4th inoculation ([3]; Polymer P2): − (slight growth, max. 100 colonies)
60 d 40° C., bact. assess., 4th inoculation ([3]; Polymer P2): ++
Start sample measurement, bact. assess., 4th inoculation ([3]; Polymer P3): − (slight growth, max. 100 colonies)
60 d 40° C., bact. assess., 4th inoculation ([3]; Polymer P3): ++
60 d 40° C., bact. assess., 4th inoculation ([3]; Polymer P4): +
60 d 40° C., bact. assess., 4th inoculation ([3]; Polymer P5 (HP56)): ++
60 d 40° C., bact. assess., 4th inoculation ([3]; Polymer P6): +
60 d 40° C., bact. assess., 4th inoculation ([3]; Polymer P7): ++
Start sample measurement, bact. assess., 4th inoculation ([3]; Polymer P8): − (slight growth, max. 100 colonies)
60 d 40° C., bact. assess., 4th inoculation ([3]; Polymer P8): +
60 d 40° C., bact. assess., 4th inoculation ([3]; Polymer P9): ++
60 d 40° C., yeast assess., 4th inoculation ([4]; Polymer P1): +
60 d 40° C., yeast assess., 4th inoculation ([4]; Polymer P2): ++
Start sample measurement, yeast assess., 4th inoculation ([4]; Polymer P3): − (slight growth, max. 100 colonies)
60 d 40° C., yeast assess., 4th inoculation ([4]; Polymer P3): ++
Start sample measurement, yeast assess., 4th inoculation ([4]; Polymer P4): − (slight growth, max. 100 colonies)
60 d 40° C., yeast assess., 4th inoculation ([4]; Polymer P4): ++
Start sample measurement, yeast assess., 4th inoculation ([4]; Polymer P5 (HP56)): − (slight growth, max. 100 colonies)
60 d 40° C., yeast assess., 4th inoculation ([4]; Polymer P5 (HP56)): ++
Start sample measurement, yeast assess., 4th inoculation ([4]; Polymer P6): − (slight growth, max. 100 colonies)
60 d 40° C., yeast assess., 4th inoculation ([4]; Polymer P6): ++
Start sample measurement, yeast assess., 4th inoculation ([4]; Polymer P7): − (slight growth, max. 100 colonies)
60 d 40° C., yeast assess., 4th inoculation ([4]; Polymer P7): ++
60 d 40° C., yeast assess., 4th inoculation ([4]; Polymer P8): +
Start sample measurement, yeast assess., 4th inoculation ([4]; Polymer P9): − (slight growth, max. 100 colonies)
60 d 40° C., yeast assess., 4th inoculation ([4]; Polymer P9): ++
